From patent US4740601A, “Imidazole derivatives having antimicrobial activities” (SS Pharmaceutical Co., Ltd., priority 1985, dated 1988)
≈ marks a conversion by molar mass, not a printed value. Where two headings read alike, the source gives them in different places.

Key:
Type in all cases: cell-based
Sarcina lutea ATCC 9341 = assay: antimicrobial activity, MIC
[1] = system: Microsporum cookei IFO 8303; assay: antimicrobial activity, MIC
[2] = system: Staphylococcus aureus Smith; assay: antimicrobial activity, MIC; settings: Staphylococcus aureus, read-out: MIC
[3] = system: Debaryomyces kloeckeri IFO 0015; assay: antimicrobial activity, MIC; settings: IFO0015, read-out: MIC
[4] = system: Trichophyton mentagrophytes QM 248; assay: antimicrobial activity, MIC
[5] = system: Penicillium chrysogenum ATCC 6010; assay: antimicrobial activity, MIC
[6] = system: Fusarium moniliforme IAM 5062; assay: antimicrobial activity, MIC; settings: Fusarium verticillioides, IAM5062, Fusarium moniliforme IAM 5062; read-out: MIC
[7] = system: Cladosporium fulvum IAM 5006; assay: antimicrobial activity, MIC; settings: Fulvia fulva, IAM5006, Cladosporium fulvum IAM 5006; read-out: MIC
[8] = system: Saccharomyces cerevisiae ATCC 9763; assay: antimicrobial activity, MIC; settings: Saccharomyces cerevisiae, ATCC9763, Saccharomyces cerevisiae ATCC 9763; read-out: MIC
[9] = system: Trichophyton tonsurans IFO 5928; assay: antimicrobial activity, MIC
[10] = system: Micrococcus lysodeixticus IFO 3333; assay: antimicrobial activity, MIC; settings: Micrococcus
[11] = system: Streptococcus faecalis IFO 12964; assay: antimicrobial activity, MIC; settings: Enterococcus faecalis, IFO12964, Streptococcus faecalis IFO 12964; read-out: MIC
[12] = system: Aspergillus niger ATCC 9642; assay: antimicrobial activity, MIC
[13] = system: Gibberella fujikuroi IAM 8046; assay: antimicrobial activity, MIC
[14] = system: Candida albicans NHL 4019; assay: antimicrobial activity, MIC; settings: Candida albicans, NHL4019, Candida albicans NHL 4019; read-out: MIC
[15] = system: Epidermophyton floccosum IFO 9045; assay: antimicrobial activity, MIC
[16] = system: Aspergillus oryzae IMF 4014; assay: antimicrobial activity, MIC
[17] = system: Microsporum gypseum IFO 8231; assay: antimicrobial activity, MIC; settings: Nannizzia gypsea, IFO8231, Microsporum gypseum IFO 8231; read-out: MIC
Candida albicans Yu-1200 = assay: antimicrobial activity, MIC; settings: YU1200, read-out: MIC
[18] = system: Bacillus subtilis ATCC 6633; assay: antimicrobial activity, MIC
[19] = system: Staphylococcus epidermidis ATCC 12228; assay: antimicrobial activity, MIC; settings: Staphylococcus epidermidis, ATCC12228, Staphylococcus epidermidis ATCC 12228; read-out: MIC
[20] = system: Microsporum audounii IFO 6074; assay: antimicrobial activity, MIC
[21] = system: Staphylococcus aureus FDA 209P; assay: antimicrobial activity, MIC; settings: Staphylococcus aureus, FDA209P, read-out: MIC
[22] = system: Staphylococcus aureus Terajima; assay: antimicrobial activity, MIC; settings: Staphylococcus aureus, read-out: MIC
[23] = system: Trichophyton rubrum NHL J; assay: antimicrobial activity, MIC; settings: Trichophyton rubrum NHL J
Saccharomyces ruxii 6507 = assay: antimicrobial activity, MIC
[24] = system: Pyricularia oryzae IAM 5016; assay: microbe, parasite or virus in culture
[25] = system: Trichophyton mentagrophytes IFO 5812; assay: antimicrobial activity, MIC
[26] = system: Helminthosporium sesamum IAM 5012; assay: antimicrobial activity, MIC
[27] = Micrococcus luteus, ATCC9341, Sarcina lutea ATCC 9341, read-out: MIC
[28] = Paraphyton cookei, IFO8303, Microsporum cookei IFO 8303, read-out: MIC
[29] = Trichophyton mentagrophytes, QM248, Trichophyton mentagrophytes QM 248, read-out: MIC
[30] = Penicillium chrysogenum, ATCC6010, Penicillium chrysogenum ATCC 6010, read-out: MIC
[31] = Trichophyton tonsurans, IFO5928, Trichophyton tonsurans IFO 5928, read-out: MIC
[32] = IFO3333, Micrococcus lysodeixticus IFO 3333, read-out: MIC
[33] = Aspergillus niger, ATCC9642, Aspergillus niger ATCC 9642, read-out: MIC
[34] = Fusarium fujikuroi, IAM8046, Gibberella fujikuroi IAM 8046, read-out: MIC
[35] = Epidermophyton floccosum, IFO9045, Epidermophyton floccosum IFO 9045, read-out: MIC
[36] = Aspergillus oryzae, IMF4014, Aspergillus oryzae IMF 4014, read-out: MIC
[37] = Bacillus subtilis, ATCC6633, Bacillus subtilis ATCC 6633, read-out: MIC
[38] = Microsporum, IFO6074, Microsporum audounii IFO 6074, read-out: MIC
[39] = Trichophyton rubrum, read-out: MIC
[40] = Saccharomyces ruxii 6507, read-out: MIC
[41] = Pyricularia oryzae, IAM5016, Pyricularia oryzae IAM 5016
[42] = Trichophyton mentagrophytes, IFO5812, Trichophyton mentagrophytes IFO 5812, read-out: MIC
[43] = Helminthosporium, IAM5012, Helminthosporium sesamum IAM 5012, read-out: MIC

CCCOc1ccccc1C(=CSc1ccccc1)n1ccnc1 (single isomer, unassigned) [Compound 64]
MIC (Sarcina lutea ATCC 9341; Sarcina lutea ATCC 9341): 6.25 µg/mL (≈ 18.6 µM)
MIC ([1]; Microsporum cookei IFO 8303): 12.5 µg/mL (≈ 37.2 µM)
MIC [2]: 12.5 µg/mL (≈ 37.2 µM)
MIC [3]: > 100 µg/mL
MIC ([4]; Trichophyton mentagrophytes QM 248): 0.78 µg/mL (≈ 2.32 µM)
MIC ([5]; Penicillium chrysogenum ATCC 6010): 12.5 µg/mL (≈ 37.2 µM)
MIC [6]: 50 µg/mL (≈ 149 µM)
MIC [7]: > 100 µg/mL
MIC [8]: 50 µg/mL (≈ 149 µM)
MIC ([9]; Trichophyton tonsurans IFO 5928): 3.12 µg/mL (≈ 9.27 µM)
MIC ([10]; IFO3333): 1.56 µg/mL (≈ 4.64 µM)
MIC [11]: 25 µg/mL (≈ 74.3 µM)
MIC ([12]; Aspergillus niger ATCC 9642): 12.5 µg/mL (≈ 37.2 µM)
MIC ([13]; Gibberella fujikuroi IAM 8046): 25 µg/mL (≈ 74.3 µM)
MIC [14]: > 100 µg/mL
MIC ([15]; Epidermophyton floccosum IFO 9045): 6.25 µg/mL (≈ 18.6 µM)
MIC ([16]; Aspergillus oryzae IMF 4014): 6.25 µg/mL (≈ 18.6 µM)
MIC [17]: 6.25 µg/mL (≈ 18.6 µM)
MIC (Candida albicans Yu-1200): > 100 µg/mL
MIC ([18]; Bacillus subtilis ATCC 6633): 6.25 µg/mL (≈ 18.6 µM)
MIC [19]: 6.25 µg/mL (≈ 18.6 µM)
MIC ([20]; Microsporum audounii IFO 6074): < 0.2 µg/mL
MIC [21]: 25 µg/mL (≈ 74.3 µM)
MIC [22]: 6.25 µg/mL (≈ 18.6 µM)
MIC [23]: < 0.2 µg/mL
MIC (Saccharomyces ruxii 6507; Saccharomyces, 6507, Saccharomyces ruxii 6507): 1.56 µg/mL (≈ 4.64 µM)
MIC ([24]; Pyricularia oryzae IAM 5016): < 0.2 µg/mL
MIC ([25]; Trichophyton mentagrophytes IFO 5812): < 0.2 µg/mL
MIC ([26]; Helminthosporium sesamum IAM 5012): 6.25 µg/mL (≈ 18.6 µM)

CCOc1ccccc1C(=CSCc1ccccc1)n1ccnc1 [Compound 7]
MIC (Sarcina lutea ATCC 9341; [27]): 12.5 µg/mL (≈ 37.2 µM)
MIC [1, 28]: 12.5 µg/mL (≈ 37.2 µM)
MIC [2]: 12.5 µg/mL (≈ 37.2 µM)
MIC [3]: 25 µg/mL (≈ 74.3 µM)
MIC [4, 29]: 3.12 µg/mL (≈ 9.27 µM)
MIC [5, 30]: 50 µg/mL (≈ 149 µM)
MIC [6]: 6.25 µg/mL (≈ 18.6 µM)
MIC [7]: 100 µg/mL (≈ 297 µM)
MIC [8]: < 0.2 µg/mL
MIC [9, 31]: < 0.2 µg/mL
MIC [10, 32]: 6.25 µg/mL (≈ 18.6 µM)
MIC [11]: 50 µg/mL (≈ 149 µM)
MIC [12, 33]: 12.5 µg/mL (≈ 37.2 µM)
MIC [13, 34]: 6.25 µg/mL (≈ 18.6 µM)
MIC [14]: 100 µg/mL (≈ 297 µM)
MIC [15, 35]: 6.25 µg/mL (≈ 18.6 µM)
MIC [16, 36]: 6.25 µg/mL (≈ 18.6 µM)
MIC [17]: 1.56 µg/mL (≈ 4.64 µM)
MIC (Candida albicans Yu-1200): > 100 µg/mL
MIC [18, 37]: 25 µg/mL (≈ 74.3 µM)
MIC [19]: 25 µg/mL (≈ 74.3 µM)
MIC [20, 38]: < 0.2 µg/mL
MIC [21]: 50 µg/mL (≈ 149 µM)
MIC [22]: 25 µg/mL (≈ 74.3 µM)
MIC [23, 39]: < 0.2 µg/mL
MIC (Saccharomyces ruxii 6507; [40]): 0.78 µg/mL (≈ 2.32 µM)
MIC [24, 41]: < 0.2 µg/mL
MIC [25, 42]: 0.78 µg/mL (≈ 2.32 µM)
MIC [26, 43]: 0.39 µg/mL (≈ 1.16 µM)

CCCCCOc1ccccc1C(=CSCC)n1ccnc1 (single isomer, unassigned) [Compound 34]
MIC (Sarcina lutea ATCC 9341; [27]): 1.56 µg/mL (≈ 4.93 µM)
MIC [1, 28]: 1.56 µg/mL (≈ 4.93 µM)
MIC [2]: 12.5 µg/mL (≈ 39.5 µM)
MIC [3]: 0.78 µg/mL (≈ 2.46 µM)
MIC [4, 29]: < 0.2 µg/mL
MIC [5, 30]: 3.12 µg/mL (≈ 9.86 µM)
MIC [6]: 0.39 µg/mL (≈ 1.23 µM)
MIC [7]: 25 µg/mL (≈ 79 µM)
MIC [8]: < 0.2 µg/mL
MIC [9, 31]: < 0.2 µg/mL
MIC [10, 32]: 0.39 µg/mL (≈ 1.23 µM)
MIC [11]: 12.5 µg/mL (≈ 39.5 µM)
MIC [12, 33]: 0.78 µg/mL (≈ 2.46 µM)
MIC [13, 34]: < 0.2 µg/mL
MIC [14]: 50 µg/mL (≈ 158 µM)
MIC [15, 35]: 1.56 µg/mL (≈ 4.93 µM)
MIC [16, 36]: 1.56 µg/mL (≈ 4.93 µM)
MIC [17]: < 0.2 µg/mL
MIC (Candida albicans Yu-1200): 50 µg/mL (≈ 158 µM)
MIC [18, 37]: 3.12 µg/mL (≈ 9.86 µM)
MIC [19]: 3.12 µg/mL (≈ 9.86 µM)
MIC [20, 38]: < 0.2 µg/mL
MIC [21]: 12.5 µg/mL (≈ 39.5 µM)
MIC [22]: 12.5 µg/mL (≈ 39.5 µM)
MIC [23, 39]: < 0.2 µg/mL
MIC (Saccharomyces ruxii 6507; [40]): < 0.2 µg/mL
MIC [24, 41]: < 0.2 µg/mL
MIC [25, 42]: < 0.2 µg/mL
MIC [26, 43]: < 0.2 µg/mL

CCCCCSC=C(c1ccccc1OCC)n1ccnc1 (single isomer, unassigned) [Compound 49]
MIC (Sarcina lutea ATCC 9341; [27]): 3.12 µg/mL (≈ 9.86 µM)
MIC [1, 28]: 1.56 µg/mL (≈ 4.93 µM)
MIC [2]: 12.5 µg/mL (≈ 39.5 µM)
MIC [3]: 12.5 µg/mL (≈ 39.5 µM)
MIC [4, 29]: < 0.2 µg/mL
MIC [5, 30]: 6.25 µg/mL (≈ 19.7 µM)
MIC [6]: 1.56 µg/mL (≈ 4.93 µM)
MIC [7]: 25 µg/mL (≈ 79 µM)
MIC [8]: 50 µg/mL (≈ 158 µM)
MIC [9, 31]: < 0.2 µg/mL
MIC [10, 32]: 1.56 µg/mL (≈ 4.93 µM)
MIC [11]: 6.25 µg/mL (≈ 19.7 µM)
MIC [12, 33]: < 0.2 µg/mL
MIC [13, 34]: 0.39 µg/mL (≈ 1.23 µM)
MIC [14]: 25 µg/mL (≈ 79 µM)
MIC [15, 35]: 0.78 µg/mL (≈ 2.46 µM)
MIC [16, 36]: 0.78 µg/mL (≈ 2.46 µM)
MIC [17]: < 0.2 µg/mL
MIC (Candida albicans Yu-1200): 25 µg/mL (≈ 79 µM)
MIC [18, 37]: 3.12 µg/mL (≈ 9.86 µM)
MIC [19]: 3.12 µg/mL (≈ 9.86 µM)
MIC [20, 38]: < 0.2 µg/mL
MIC [21]: 12.5 µg/mL (≈ 39.5 µM)
MIC [22]: 6.25 µg/mL (≈ 19.7 µM)
MIC [23, 39]: < 0.2 µg/mL
MIC (Saccharomyces ruxii 6507; [40]): < 0.2 µg/mL
MIC [24, 41]: < 0.2 µg/mL
MIC [25, 42]: < 0.2 µg/mL
MIC [26, 43]: 0.39 µg/mL (≈ 1.23 µM)
